Assay results: US20060100243A1 (priority 2004, published 2006)
Entries after “also recorded” stand apart in the source; their conditions may differ. Like-named read-outs stand apart in the source and are kept apart here.

Key:
[1] = biological target: T1, recombinant human dopamine transporter (Homo sapiens, UniProt Q01959); experiment: dopamine reuptake inhibition in HEK 293 cells; assay type: cell-based; details: for IC50: RR/SS racemates table, HEK 293 cells
T1 construct: expressed in transfected cells
T1 sequence (Q01959 whole entry): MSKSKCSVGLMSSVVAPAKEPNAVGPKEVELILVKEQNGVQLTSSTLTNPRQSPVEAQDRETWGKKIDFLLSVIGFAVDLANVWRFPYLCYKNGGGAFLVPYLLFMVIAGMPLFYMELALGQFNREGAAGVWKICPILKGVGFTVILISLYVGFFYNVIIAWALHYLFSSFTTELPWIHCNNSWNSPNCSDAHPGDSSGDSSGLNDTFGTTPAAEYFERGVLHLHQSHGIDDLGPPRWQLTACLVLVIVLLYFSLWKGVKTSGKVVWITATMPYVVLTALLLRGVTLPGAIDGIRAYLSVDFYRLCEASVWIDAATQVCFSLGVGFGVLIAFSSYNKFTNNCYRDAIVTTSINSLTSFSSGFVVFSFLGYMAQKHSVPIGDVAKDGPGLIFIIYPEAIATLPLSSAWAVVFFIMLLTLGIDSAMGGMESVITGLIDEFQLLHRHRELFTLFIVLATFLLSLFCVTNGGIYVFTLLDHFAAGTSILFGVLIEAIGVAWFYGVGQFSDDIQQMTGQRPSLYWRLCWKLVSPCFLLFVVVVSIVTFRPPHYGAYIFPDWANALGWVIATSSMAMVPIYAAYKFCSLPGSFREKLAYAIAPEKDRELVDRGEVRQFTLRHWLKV

[2] = biological target: T1, recombinant human dopamine transporter; experiment: [125I]RTI-55 binding, dopamine transporter in HEK 293 cells; details: for Ki: RR/SS racemates table, HEK 293 cells
[3] = biological target: T2, recombinant human norepinephrine transporter (Homo sapiens, UniProt P23975); experiment: biochemical; assay type: binding; details: HEK 293 cells
T2 construct: expressed in transfected cells
T2 sequence (P23975 whole entry): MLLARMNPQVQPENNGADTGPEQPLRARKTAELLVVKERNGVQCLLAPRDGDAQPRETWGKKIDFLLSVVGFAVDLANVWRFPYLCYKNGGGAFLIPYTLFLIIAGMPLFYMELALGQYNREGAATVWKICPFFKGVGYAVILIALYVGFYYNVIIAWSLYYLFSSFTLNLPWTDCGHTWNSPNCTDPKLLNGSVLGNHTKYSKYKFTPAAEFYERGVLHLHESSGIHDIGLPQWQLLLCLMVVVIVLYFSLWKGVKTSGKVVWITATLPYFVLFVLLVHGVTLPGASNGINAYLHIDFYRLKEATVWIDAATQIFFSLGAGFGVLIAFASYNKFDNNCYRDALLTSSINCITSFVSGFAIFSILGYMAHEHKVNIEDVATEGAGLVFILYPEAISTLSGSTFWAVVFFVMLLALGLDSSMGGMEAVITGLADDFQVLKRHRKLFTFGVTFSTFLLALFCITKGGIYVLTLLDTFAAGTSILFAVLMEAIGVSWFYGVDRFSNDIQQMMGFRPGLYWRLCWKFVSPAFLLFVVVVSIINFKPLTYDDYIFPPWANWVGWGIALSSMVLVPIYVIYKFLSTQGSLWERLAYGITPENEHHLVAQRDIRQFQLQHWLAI

[4] = biological target: T2, recombinant human norepinephrine transporter; experiment: cell-based; details: HEK 293 cells
male Swiss-Webster mice = experiment: dose response study of induced locomotor stimulation; details: for time of occurrence of stimulant effects following injection: at the active doses
[5] = biological target: T3, recombinant human serotonin transporter (Homo sapiens, UniProt P31645); experiment: serotonin (5HT) reuptake inhibition in HEK 293 cells; assay type: cell-based; details: SEROTONIN 5HT REUPTAKE (IC50), HEK 293 cells
T3 construct: expressed in transfected cells
T3 sequence (P31645 whole entry): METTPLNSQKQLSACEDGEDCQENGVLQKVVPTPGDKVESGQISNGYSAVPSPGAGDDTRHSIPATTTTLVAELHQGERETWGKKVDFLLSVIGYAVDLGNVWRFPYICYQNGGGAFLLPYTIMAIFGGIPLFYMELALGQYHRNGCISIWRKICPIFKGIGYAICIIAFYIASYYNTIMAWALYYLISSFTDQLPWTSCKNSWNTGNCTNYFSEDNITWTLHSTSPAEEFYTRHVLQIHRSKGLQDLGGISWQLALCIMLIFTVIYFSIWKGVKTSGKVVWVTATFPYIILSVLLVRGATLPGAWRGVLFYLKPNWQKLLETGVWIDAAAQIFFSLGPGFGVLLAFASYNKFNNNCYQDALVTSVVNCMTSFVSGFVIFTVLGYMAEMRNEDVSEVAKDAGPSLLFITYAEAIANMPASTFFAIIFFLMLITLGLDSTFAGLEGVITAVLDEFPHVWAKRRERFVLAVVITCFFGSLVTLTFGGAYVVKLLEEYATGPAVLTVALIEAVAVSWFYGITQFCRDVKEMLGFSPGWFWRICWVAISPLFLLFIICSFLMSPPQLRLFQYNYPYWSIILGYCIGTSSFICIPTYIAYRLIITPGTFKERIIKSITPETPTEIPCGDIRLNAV

[6] = biological target: T3, recombinant human serotonin transporter; experiment: biochemical; assay type: binding
[7] = prescribed doses; cited from earlier work
[8] = RR/SS racemates table, read-out: NOREPINEPHRINE [I125]-RTI-55 BINDING (Ki)
[9] = RR/SS racemates table, read-out: NOREPINEPHRINE NE REUPTAKE (IC50)

Structure (SMILES): CC(C)CC(c1ccc(Cl)cc1)C1CCCCN1 (racemic) [Sample D]
- IC50 ([1]; read-out: DOPAMINE DA REUPTAKE (IC50)): 8.6 ± 2.9 nM
- Ki ([2]; read-out: DOPAMINE [I125]-RTI-55 BINDING (Ki)): 16 ± 4 nM
- potency at binding to the dopamine transporter and blocking dopamine reuptake ([2]; in words, binding and reuptake, compared with MPH / other samples): enhanced potency; also recorded: most potent
- Ki [3, 8]: 840 ± 130 nM
- IC50 [4, 9]: 120 ± 40 nM
- duration of stimulant effects (male Swiss-Webster mice; mice, IP, 3 mg/kg): up to 4 hours
- duration of stimulant effects (male Swiss-Webster mice; mice, IP, 10 mg/kg): ≤ 5 h
- duration of stimulant effects (male Swiss-Webster mice; mice, IP, 30 mg/kg): over 8 hours
- time of occurrence of stimulant effects following injection (male Swiss-Webster mice; mice, IP): at least 20 minutes

Structure (SMILES): CC(C)CC(c1ccc(Cl)c(Cl)c1)C1CCCCN1C (single isomer, unassigned) [O]
- IC50 ([1]; DOPAMINE DA REUPTAKE (IC50)): 13 ± 4 nM
- NE/DA REUPTAKE ([1]; ratio of NE/DA reuptake IC50, selectivity for dopamine over norepinephrine transporter): 2.2
- Ki ([2]; DOPAMINE [I125]-RTI-55 BINDING (Ki)): 6.6 ± 0.9 nM
- Ki [3, 8]: 190 ± 60 nM
- IC50 [4, 9]: 29 ± 3 nM
- IC50 ([5]; RR/SS racemates table): 1400 ± 500 nM
- Ki ([6]; RR/SS racemates table, HEK 293 cells, read-out: SEROTONIN [I125]-RTI-55 BINDING (Ki)): 1300 ± 200 nM

Structure (SMILES): COC(=O)C(c1ccccc1)C1CCCCN1 (stereo not drawn) [MPH, methylphenidate, reference compound]
- Ki ([3]; NOREPINEPHRINE [I125]-RTI-55 BINDING (Ki), RR/SS racemates table): 1800 ± 800 nM
- Ki ([3]; NOREPINEPHRINE [I125]-RTI-55 BINDING (Ki), RS/SR racemates table): 1800 ± 800 nM
- IC50 ([4]; NORE[…] REUPTAKE (IC50), RR/SS racemates table): 38 ± 4 nM
- IC50 ([4]; NORE[…] REUPTAKE (IC50), RS/SR racemates table): 38 ± 4 nM
- time of occurrence of stimulant effects following injection (male Swiss-Webster mice; mice, IP): ≤ 10 min
- duration of stimulant effects (male Swiss-Webster mice; mouse, in vivo): up to 4 hours
- IC50 ([5]; RR/SS racemates table): 55000 ± 16000 nM
- IC50 ([5]; RS/SR racemates table): 55000 ± 16000 nM
- time of maximum drug concentration after oral administration [7]: about two hours
- binding to or reuptake at the serotonin transporter [6]: neither MPH nor the MPH analogs demonstrated significant binding to or reuptake at the serotonin transporter
- Ki ([6]; SEROTONIN [I125]-RTI-55 BINDING (Ki)): 40000 ± 8000 nM

Structure (SMILES): COC(=O)[C@H]1[C@@H](OC(=O)c2ccccc2)C[C@@H]2CC[C@H]1N2C [cocaine]
- period of maximal stimulant effects (male Swiss-Webster mice; mice, IP, 20 mg/kg): ≤ 30 min
- duration of stimulant effects (male Swiss-Webster mice; mice, IP, 10, 20, and 40 mg/kg): up to 2 hours
- time of occurrence of stimulant effects following injection (male Swiss-Webster mice; mice, IP): ≤ 10 min
